The values that follow are results of earlier work, collected in patent US7006921B1, “Method for accurately estimating pKa of molecules using atom type definitions and partial least squares” (priority 1999, dated 2006).

Molecules are shown by their SMILES.

The conditions of the first data set: first or only pKa.
Regarding `CC(C)NCC(O)C1CCC(O)CC1` (stereo not shown) [1-(4′-hydroxycyclohexyl)-2-(isopropylamino)-ethanol], the “Measured (pKa)” value was 10.23.
In the case of `O=C(O)c1cc(Br)c[nH]1` [4-bromopyrrol-2-carboxylic acid, 4-bromopyrrol-2-carboxylic acid], the “Measured (pKa)” value is 4.06.
As to `O=C(O)c1cnn[nH]1` [1,2,3-triazole-4-carboxylic acid, 1,2,3-triazole-4-carboxylic acid], the “Measured (pKa)” value is given as 3.22.
Consider `CNCC(N)=O` [2-(methylamino)-acetamide, 2-(methylamino)-acetamide], for which the “Measured (pKa)” value was 8.31.
In the case of `NC1CCCCCC1O` (stereo not shown) [2-aminocycloheptanol], the “Measured (pKa)” value was 9.25.
Take `CC(=O)OCCN(C)C` [2-(dimethylamino)-ethyl acetate, 2-(dimethylamino)-ethyl acetate]: the “Measured (pKa)” value is 8.35.
On to `Nc1cc(Cl)ncn1` [4-amino-6-chloropyrimidine, 4-amino-6-chloropyrimidine], for which the “Measured (pKa)” value is recorded as 2.10.
Consider `Oc1c(O)c(O)c(O)c(O)c1O` [Benzenehexol], for which the “Measured (pKa)” value is on record as 9.0.
Take `Oc1cccnc1` [3-hydroxypyridine]: the “Measured (pKa)” value was 4.80.
For `c1c[nH]cn1` [imidazole], the “Measured (pKa)” value is recorded as 6.04.
Take `CC#CCN(C)C` [N,N-dimethyl-2-butyn-1-amine, N,N-dimethyl-2-butyn-1-amine]: the “Measured (pKa)” value is 8.28.
For `NCCSCCSCCN` [1,8-diamino-3,6-dithiaoctane, 1,8-diamino-3,6-dithiaoctane], the “Measured (pKa)” value is recorded as 9.47.
Regarding `O=C(O)c1ccc(Br)cc1C(=O)O` [4-bromo-1,2-benzenedicarboxylic acid, 4-bromo-1,2-benzenedicarboxylic acid], the “Measured (pKa)” value is given as 2.5.
On to `NCCNCCO` [5-amino-3-azapentanol, 5-amino-3-azapentanol], for which the “Measured (pKa)” value is recorded as 9.82.
Take `Oc1cccc(O)c1O` [Pyrogallol]: the “Measured (pKa)” value is 9.12.
Regarding `O=C(O)c1coc(C(=O)O)c1` [Furan-2,4-dicarboxylic acid, Furan-2,4-dicarboxylic acid], the “Measured (pKa)” value was 2.63.
On to `COc1cc(C(=O)O)cc(OC)c1O` [4-hydroxy-3,5-dimethoxybenzoic acid, 4-hydroxy-3,5-dimethoxybenzoic acid], for which the “Measured (pKa)” value is 4.34.
As for `Nc1ccc(Br)c([N+](=O)[O-])c1` [4-bromo-3-nitroaniline, 4-bromo-3-nitroaniline], the “Measured (pKa)” value is given as 1.80.
With `Cc1cc(O)cc(C)c1Cl` [4-chloro-3,5-dimethylphenol, 4-chloro-3,5-dimethylphenol], the “Measured (pKa)” value is listed as 9.71.
`CSCC[C@H](N)C(=O)O` [Methionine]: the “Measured (pKa)” value is recorded as 2.17.
Turning to `Nc1ccnnc1` [4-aminopyridazine], the “Measured (pKa)” value is 6.65.
`COc1cncc(Br)c1` [3-bromo-5-methoxypyridine, 3-bromo-5-methoxypyridine]: the “Measured (pKa)” value is given as 2.60.
With `CC(=O)c1cccnc1` [3-acetylpyridine], the “Measured (pKa)” value was 3.26.
Take `C1N2CN3CN1CN(C2)C3` [Hexamethylenetetramine]: the “Measured (pKa)” value is on record as 6.2.
For the compound `O=C(O)c1cc[nH]n1` [Pyrazole-3-carboxlylic acid, Pyrazole-3-carboxlylic acid], the “Measured (pKa)” value is 3.74.
As to `CC(=O)C(CC(=O)O)C(=O)O` (stereo not shown) [2-acetylbutanedioic acid, 2-acetylbutanedioic acid], the “Measured (pKa)” value is 2.86.

The data set is the same for the next values; noted with them: second value of the cell, pKa2.
Take `Oc1cccnc1` [3-hydroxypyridine]: the “Measured (pKa2)” value is listed as 8.74.
In the case of `CSCC[C@H](N)C(=O)O` [Methionine], the “Measured (pKa2)” value is recorded as 9.20.
